In DBAASP:
≈ marks a conversion by molar mass, not a printed value. Where “and” joins values, the source holds several entries; their conditions need not be identical. Identical values can stand only once.

Columns and labels:
Experiment in all cases: ≥ marks a high value that may be exact or a test limit, other limits are often not marked, values filed in µg/mL are converted to µM
Micrococcus luteus = system: Micrococcus luteus
[1] = system: Escherichia coli ATCC 25922
[2] = system: Staphylococcus aureus ATCC 25923
[3] = system: Pseudomonas aeruginosa ATCC 15692
Saccharomyces cerevisiae = system: Saccharomyces cerevisiae
[4] = system: Staphylococcus aureus BCRC 10780
Escherichia coli BW25113 = system: Escherichia coli BW25113
[5] = system: Staphylococcus aureus ATCC 43300
[6] = system: Salmonella enterica subsp. enterica serovar Typhimurium ATCC 14028
[7] = system: Candida tropicalis CGMCC 2.1975
[8] = system: Staphylococcus aureus ATCC 29213
[9] = system: Salmonella enterica subsp. enterica serovar Pullorum ATCC 7913
[10] = system: Candida krusei CGMCC 2.1857
Candida albicans = system: Candida albicans
[11] = system: Staphylococcus epidermidis ATCC 12228
[12] = system: Candida parapsilosis CGMCC 2.3989
Escherichia coli 1005 = system: Escherichia coli 1005
Pseudomonas aeruginosa = system: Pseudomonas aeruginosa
Salmonella typhimurium = system: Salmonella typhimurium
Escherichia coli = system: Escherichia coli
Shigella dysenteriae = system: Shigella dysenteriae
Serratia marcescens = system: Serratia marcescens
Proteus mirabilis = system: Proteus mirabilis
[13] = system: Staphylococcus epidermidis
Bacillus subtilis = system: Bacillus subtilis
Escherichia coli ML-35p = system: Escherichia coli ML-35p
[14] = system: Pseudomonas aeruginosa ATCC BAA-427
[15] = system: Bacillus subtilis ATCC 6633
[16] = system: Bacillus cereus ATCC 11778
[17] = system: Escherichia coli ATCC 35218
[18] = system: Pseudomonas aeruginosa ATCC 9027

MIC [1]	MIC [2]	MIC [5]	MIC [6]	MIC [7]	MIC [8]	MIC [9]	MIC [10]	MIC (Candida albicans)	MIC [11]	MIC [12]	MIC (Escherichia coli 1005)	Structure (SMILES)	further results
16 µM (≈ 42.9 µg/mL)	> 256 µM											CSCC[C@H](NC(=O)[C@@H](NC(=O)[C@@H](NC(=O)[C@H](CCCCN)NC(=O)[C@H](CC(C)C)NC(=O)[C@H](C)NC(=O)[C@H](CCCCN)NC(=O)[C@@H](NC(=O)[C@H](CC(C)C)NC(=O)[C@H](Cc1ccccc1)NC(=O)[C@H](CC(N)=O)NC(=O)[C@H](CCC(=O)O)NC(=O)[C@H](Cc1ccccc1)NC(=O)CNC(=O)[C@H](CC(C)C)NC(=O)[C@@H](N)CCCCN)C(C)C)[C@@H](C)O)C(C)C)C(=O)N[C@@H](Cc1cnc[nH]1)C(=O)N[C@H](C(=O)N1CCC[C@H]1C(=O)N[C@H](C(=O)N[C@@H](CO)C(=O)N1CCC[C@H]1C(=O)N[C@@H](CC(C)C)C(=O)N[C@@H](CC(C)C)C(N)=O)[C@@H](C)O)C(C)C [KLGFENFLVKALKTVMHVPTSPLL]	MIC (Micrococcus luteus): 4 µM (≈ 10.7 µg/mL); MIC [3]: ≥ 256 µM; MIC (Saccharomyces cerevisiae): ≥ 64 µM
												CC[C@H](C)[C@H](NC(=O)[C@H](CCCCN)NC(=O)[C@@H]1CCCN1C(=O)[C@@H](NC(=O)[C@H](CC(C)C)NC(=O)[C@H](C)NC(=O)[C@H](Cc1ccccc1)NC(=O)[C@H](Cc1ccccc1)NC(=O)CNC(C)=O)[C@@H](C)CC)C(N)=O [GFFALIPKI]	MIC [4]: ≥ 99.5 µM
												CC[C@H](C)[C@H](NC(=O)[C@@H]1CCCN1C(=O)[C@H](Cc1ccccc1)NC(=O)[C@H](CCCN=C(N)N)NC(=O)[C@H](Cc1ccccc1)NC(=O)[C@@H](N)CCCN=C(N)N)C(=O)N[C@@H](CCCN=C(N)N)C(=O)N[C@@H](CCCN=C(N)N)C(=O)N1CCC[C@H]1C(=O)N1CCC[C@H]1C(=O)N[C@H](C(=O)N[C@@H](CCCN=C(N)N)C(=O)N1CCC[C@H]1C(=O)N1CCC[C@H]1C(=O)N[C@@H](Cc1ccccc1)C(=O)N[C@@H](Cc1ccc(O)cc1)C(=O)N1CCC[C@H]1C(=O)O)[C@@H](C)CC [RFRFPIRRPPIRPPFYP]	MIC (Escherichia coli BW25113): 8 µM (≈ 17.7 µg/mL)
4 µM and 8 µM	8 µM (≈ 9.66 µg/mL)	4 µM (≈ 4.83 µg/mL)	4 µM (≈ 4.83 µg/mL)	2 µM (≈ 2.42 µg/mL)	8 µM (≈ 9.66 µg/mL)	4 µM (≈ 4.83 µg/mL)	8 µM (≈ 9.66 µg/mL)	8 µM (≈ 9.66 µg/mL)	4 µM (≈ 4.83 µg/mL)	≥ 64 µM	4 µM (≈ 4.83 µg/mL)	CC(C)C[C@H](NC(=O)[C@H](CCCN=C(N)N)NC(=O)[C@H](CC(C)C)NC(=O)[C@H](CC(C)C)NC(=O)[C@H](CC(C)C)NC(=O)[C@H](CCCN=C(N)N)NC(=O)[C@H](CC(C)C)NC(=O)[C@@H](N)CCCN=C(N)N)C(=O)N[C@@H](CCCN=C(N)N)C(N)=O [RLRLLLRLR]	
								> 34.3 µM				CC[C@H](C)[C@H](NC(=O)CN)C(=O)N[C@@H](CC(C)C)C(=O)N[C@@H](CC(=O)O)C(=O)N[C@H](C(=O)N[C@@H](CC(C)C)C(=O)N[C@@H](CCCCN)C(=O)N[C@@H](CCC(N)=O)C(=O)N[C@@H](Cc1ccccc1)C(=O)N[C@@H](C)C(=O)N[C@@H](CCCCN)C(=O)NCC(=O)N[C@H](C(=O)NCC(=O)N[C@@H](CCCCN)C(=O)N[C@@H](CC(=O)O)C(=O)N[C@@H](CC(C)C)C(=O)N[C@H](C(=O)N[C@@H](CCCCN)C(=O)NCC(=O)N[C@@H](C)C(=O)N[C@@H](C)C(=O)N[C@@H](CCC(N)=O)C(=O)NCC(=O)N[C@H](C(=O)N[C@@H](CC(C)C)C(=O)N[C@@H](CO)C(=O)N[C@H](C(=O)N[C@H](C(=O)O)C(C)C)[C@@H](C)O)C(C)C)C(C)C)C(C)C)[C@@H](C)O [GILDTLKQFAKGVGKDLVKGAAQGVLSTV]	MIC (Pseudomonas aeruginosa): 8.58 µM (≈ 25 µg/mL); MIC (Salmonella typhimurium): 17.2 µM (≈ 50 µg/mL); MIC (Escherichia coli): 8.58 µM (≈ 25 µg/mL); MIC (Micrococcus luteus): 0.858 µM (≈ 2.5 µg/mL); MIC (Shigella dysenteriae): 8.58 µM (≈ 25 µg/mL); MIC (Serratia marcescens): ≥ 34.3 µM; MIC (Proteus mirabilis): 17.2 µM (≈ 50 µg/mL); MIC [13]: ≥ 34.3 µM; MIC (Bacillus subtilis): 17.2 µM (≈ 50 µg/mL); MIC (Saccharomyces cerevisiae): 8.58 µM (≈ 25 µg/mL)
	4 µM (≈ 4.83 µg/mL)	4 µM (≈ 4.83 µg/mL)	4 µM (≈ 4.83 µg/mL)	2 µM (≈ 2.42 µg/mL)	4 µM (≈ 4.83 µg/mL)	4 µM (≈ 4.83 µg/mL)	2 µM (≈ 2.42 µg/mL)	2 µM (≈ 2.42 µg/mL)	4 µM (≈ 4.83 µg/mL)	8 µM (≈ 9.66 µg/mL)	4 µM (≈ 4.83 µg/mL)	CC[C@H](C)[C@H](NC(=O)[C@H](CCCN=C(N)N)NC(=O)[C@@H](NC(=O)[C@@H](NC(=O)[C@@H](NC(=O)[C@H](CCCN=C(N)N)NC(=O)[C@@H](NC(=O)[C@@H](N)CCCN=C(N)N)[C@@H](C)CC)[C@@H](C)CC)[C@@H](C)CC)[C@@H](C)CC)C(=O)N[C@@H](CCCN=C(N)N)C(N)=O [RIRIIIRIR]	
4 µM and > 2 µM	8 µM (≈ 13.5 µg/mL)	4 µM (≈ 6.76 µg/mL)	4 µM (≈ 6.76 µg/mL)	1 µM (≈ 1.69 µg/mL)	4 µM (≈ 6.76 µg/mL)	2 µM (≈ 3.38 µg/mL)	2 µM (≈ 3.38 µg/mL)	2.83 µM (≈ 4.78 µg/mL)	4 µM (≈ 6.76 µg/mL)	16 µM (≈ 27 µg/mL)	4 µM (≈ 6.76 µg/mL)	NC(=O)[C@H](CCCN=C(N)N)NC(=O)[C@H](CCCN=C(N)N)NC(=O)[C@H](Cc1ccccc1)NC(=O)[C@H](CCCN=C(N)N)NC(=O)[C@H](Cc1ccccc1)NC(=O)[C@H](Cc1ccccc1)NC(=O)[C@H](Cc1ccccc1)NC(=O)[C@H](CCCN=C(N)N)NC(=O)[C@H](Cc1ccccc1)NC(=O)[C@H](CCCN=C(N)N)NC(=O)[C@@H](N)CCCN=C(N)N [RRFRFFFRFRR]	
												CC(C)C[C@H](NC(=O)[C@H](CCCCN)NC(=O)[C@H](CCCCN)NC(=O)[C@H](Cc1ccccc1)NC(=O)[C@H](Cc1ccccc1)NC(=O)[C@H](CCCCN)NC(=O)[C@H](CCCCN)NC(=O)[C@H](Cc1ccccc1)NC(=O)[C@H](CCCN=C(N)N)NC(=O)[C@@H](N)CCCCN)C(=O)N[C@@H](CCCCN)C(=O)N[C@@H](CCCCN)C(=O)N[C@@H](Cc1ccccc1)C(=O)N[C@H](C(=O)N[C@@H](CCCCN)C(=O)N[C@@H](CCCCN)C(=O)NCC(=O)N[C@@H](Cc1ccccc1)C(=O)N[C@@H](CCCCN)C(=O)N[C@@H](CCCCN)C(=O)N[C@@H](Cc1ccccc1)C(=O)N[C@@H](C)C(=O)N[C@@H](CCCCN)C(=O)N[C@H](C(=O)O)C(C)C)C(C)C [KRFKKFFKKLKKFVKKGFKKFAKV]	MIC (Escherichia coli ML-35p): 1.98 µM and 0.989 µM
6 µM (≈ 11.4 µg/mL)	5 µM (≈ 9.48 µg/mL)											CC(C)C[C@H](NC(=O)[C@H](CC(=O)O)NC(=O)[C@H](CC(C)C)NC(=O)[C@H](CCCCN)NC(=O)[C@H](CC(C)C)NC(=O)[C@H](CC(=O)O)NC(=O)[C@H](CC(C)C)NC(=O)[C@H](CCCCN)NC(=O)[C@H](CC(C)C)NC(=O)[C@H](CC(=O)O)NC(=O)[C@H](CC(C)C)NC(=O)[C@H](CCCCN)NC(=O)[C@H](CCCN=C(N)N)NC(=O)[C@H](CCCN=C(N)N)NC(=O)[C@@H](N)CCCN=C(N)N)C(=O)O [RRRKLDLKLDLKLDL]	MIC [14]: 6 µM (≈ 11.4 µg/mL); MIC [15]: 5 µM (≈ 9.48 µg/mL)
	> 50 µM											CC(C)C[C@H](NC(=O)[C@@H](NC(=O)[C@H](CCCCN)NC(=O)[C@H](CCCCN)NC(=O)[C@@H](N)CC(C)C)C(C)C)C(=O)N[C@@H](CCCCN)C(=O)N[C@@H](C)C(=O)N[C@@H](C)C(=O)N[C@@H](C)C(N)=O [LKKVLKAAA]	MIC [16]: ≥ 50 µM; MIC [17]: ≥ 50 µM; MIC [18]: > 50 µM
